Data taken from patent US20160271263A1 (Novo Nordisk A/S, priority 2010, published 2016).
Numbered stars: 1 amine (or outer) side, 2 acyl side, 3 side chain; on linkers, the order of the positions; unused ones are H or OH. Side chains are listed from the residue outwards. Peptide text beside a SMILES is read from it. * marks the point of attachment. C18 diacid = O=C(O)CCCCCCCCCCCCCCCCC(=O)*; γGlu = O=C(O)[C@H](CCC(=O)[*:2])N[*:1]; AEEA = NCCOCCOCC(=O)O

target: glucagon receptor (Homo sapiens, UniProt P47871); test: cell-based
Sequence (P47871 26-477): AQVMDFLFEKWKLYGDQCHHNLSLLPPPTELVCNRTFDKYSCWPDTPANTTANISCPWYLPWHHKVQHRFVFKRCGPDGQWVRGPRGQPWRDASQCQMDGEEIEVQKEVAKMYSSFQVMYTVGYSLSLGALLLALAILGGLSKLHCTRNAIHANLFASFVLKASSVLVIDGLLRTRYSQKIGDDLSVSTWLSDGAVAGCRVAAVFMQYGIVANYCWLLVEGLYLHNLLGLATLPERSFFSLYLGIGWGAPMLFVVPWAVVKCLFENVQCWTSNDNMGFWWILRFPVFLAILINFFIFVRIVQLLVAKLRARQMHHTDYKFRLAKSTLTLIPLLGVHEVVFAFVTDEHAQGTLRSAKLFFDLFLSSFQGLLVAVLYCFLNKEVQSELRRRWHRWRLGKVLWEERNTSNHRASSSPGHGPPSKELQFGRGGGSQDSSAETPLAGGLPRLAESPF

`CC(C)C[C@H](NC(=O)[C@H](Cc1ccc(O)cc1)NC(=O)[C@H](CCCCN)NC(=O)[C@H](CO)NC(=O)[C@H](Cc1ccc(O)cc1)NC(=O)[C@H](CC(=O)O)NC(=O)[C@H](CO)NC(=O)[C@@H](NC(=O)[C@H](Cc1ccccc1)NC(=O)[C@@H](NC(=O)CNC(=O)[C@H](CCC(N)=O)NC(=O)[C@H](CO)NC(=O)[C@@H](N)Cc1c[nH]cn1)[C@@H](C)O)[C@@H](C)O)C(=O)N[C@@H](CC(=O)O)C(=O)N[C@@H](CO)C(=O)N[C@@H](CCCNC(=N)N)C(=O)N[C@@H](CCCNC(=N)N)C(=O)N[C@@H](C)C(=O)N[C@@H](CCC(N)=O)C(=O)N[C@@H](CC(=O)O)C(=O)N[C@@H](Cc1ccccc1)C(=O)N[C@H](C(=O)N[C@@H](CCCCNC(=O)COCCOCCNC(=O)COCCOCCNC(=O)CC[C@H](NC(=O)CCCCCCCCCCCCCCCCC(=O)O)C(=O)O)C(=O)N[C@@H](Cc1c[nH]cn1)C(=O)N[C@@H](CC(C)C)C(=O)N[C@@H](CC(C)C)C(=O)N[C@@H](CC(N)=O)C(=O)N[C@H](C(=O)O)[C@@H](C)O)C(C)C` [Example 50, N^ε24-([2-[2-[2-[[2-[2-[2-[[(4S)-5-hydroxy-4-[(18-hydroxy-18-oxooctadecanoyl)amino]-5-oxopentanoyl]amino]ethoxy]ethoxy]acetyl]amino]ethoxy]ethoxy]acetyl]) [Lys^24,His^25,Leu^27] Glucagon] and `CC(C)C[C@H](NC(=O)[C@H](Cc1ccc(O)cc1)NC(=O)[C@H](CCCCN)NC(=O)[C@H](CO)NC(=O)[C@H](Cc1ccc(O)cc1)NC(=O)[C@H](CC(=O)O)NC(=O)[C@H](CO)NC(=O)[C@@H](NC(=O)[C@H](Cc1ccccc1)NC(=O)[C@@H](NC(=O)CNC(=O)[C@H](CCC(N)=O)NC(=O)[C@H](CO)NC(=O)[C@@H](N)Cc1c[nH]cn1)[C@@H](C)O)[C@@H](C)O)C(=O)N[C@@H](CC(=O)O)C(=O)N[C@@H](CO)C(=O)N[C@@H](CCCNC(=N)N)C(=O)N[C@@H](CCCNC(=N)N)C(=O)N[C@@H](C)C(=O)N[C@@H](CCC(N)=O)C(=O)N[C@@H](CC(=O)O)C(=O)N[C@@H](Cc1ccccc1)C(=O)N[C@H](C(=O)N[C@@H](CCCCNC(=O)COCCOCCNC(=O)COCCOCCNC(=O)CC[C@H](NC(=O)CCCCCCCCCCCCCCCCC(=O)O)C(=O)O)C(=O)N[C@@H](Cc1ccc(OP(=O)(O)O)cc1)C(=O)N[C@@H](CC(C)C)C(=O)N[C@@H](CC(C)C)C(=O)N[C@@H](CC(N)=O)C(=O)N[C@H](C(=O)O)[C@@H](C)O)C(C)C` [Example 56, N^ε24-([2-[2-[2-[[2-[2-[2-[[(4S)-5-hydroxy-4-[(18-hydroxy-18-oxooctadecanoyl)amino]-5-oxopentanoyl]amino]ethoxy]ethoxy]acetyl]amino]ethoxy]ethoxy]acetyl]) [Lys^24, (p)Tyr^25,Leu^27] Glucagon] are within 1.5-fold of each other in EC50: 0.194 nM for the first, 0.171 nM for the second.

Going from `CC(C)C[C@H](NC(=O)[C@H](Cc1ccc(O)cc1)NC(=O)[C@H](CCCCN)NC(=O)[C@H](CO)NC(=O)[C@H](Cc1ccc(O)cc1)NC(=O)[C@H](CC(=O)O)NC(=O)[C@H](CO)NC(=O)[C@@H](NC(=O)[C@H](Cc1ccccc1)NC(=O)[C@@H](NC(=O)CNC(=O)[C@H](CCC(N)=O)NC(=O)[C@H](CO)NC(=O)[C@@H](N)Cc1c[nH]cn1)[C@@H](C)O)[C@@H](C)O)C(=O)N[C@@H](CC(=O)O)C(=O)N[C@@H](CO)C(=O)N[C@@H](CCCNC(=N)N)C(=O)N[C@@H](CCCNC(=N)N)C(=O)N[C@@H](C)C(=O)N[C@@H](CCC(N)=O)C(=O)N[C@@H](CC(=O)O)C(=O)N[C@@H](Cc1ccccc1)C(=O)N[C@H](C(=O)N[C@@H](CCC(N)=O)C(=O)N[C@@H](Cc1c[nH]c2ccccc12)C(=O)N[C@@H](CC(C)C)C(=O)N[C@@H](CC(C)C)C(=O)N[C@@H](CCCCNC(=O)CC[C@H](NC(=O)CC[C@H](NC(=O)COCCOCCNC(=O)COCCOCCNC(=O)CC[C@H](NC(=O)CCCCCCCCCCCCCCCCC(=O)O)C(=O)O)C(=O)O)C(=O)O)C(=O)N[C@H](C(=O)O)[C@@H](C)O)C(C)C` [Example 52, N^ε28-([(4S)-5-hydroxy-4-[[(4S)-5-hydroxy-4-[[2-[2-[2-[[2-[2-[2-[[(4S)-5-hydroxy-4-[(18-hydroxy-18-oxooctadecanoyl)amino]-5-oxopentanoyl]amino]ethoxy]ethoxy]acetyl]amino]ethoxy]ethoxy]acetyl]amino]-5-oxopentanoyl]amino]-5-oxopentanoyl]) [Leu^27,Lys^28] Glucagon] to `CC(C)C[C@H](NC(=O)[C@H](CC(C)C)NC(=O)[C@H](Cc1c[nH]c2ccccc12)NC(=O)[C@H](CCC(N)=O)NC(=O)[C@@H](NC(=O)[C@H](Cc1ccccc1)NC(=O)[C@H](CC(=O)O)NC(=O)[C@H](CCC(N)=O)NC(=O)[C@H](C)NC(=O)[C@H](CCCNC(=N)N)NC(=O)[C@H](CCCNC(=N)N)NC(=O)[C@H](CO)NC(=O)[C@H](CC(=O)O)NC(=O)[C@H](CC(C)C)NC(=O)[C@H](Cc1ccc(O)cc1)NC(=O)[C@H](CCCCN)NC(=O)[C@H](CO)NC(=O)[C@H](Cc1ccc(O)cc1)NC(=O)[C@H](CC(=O)O)NC(=O)[C@H](CO)NC(=O)[C@@H](NC(=O)[C@H](Cc1ccccc1)NC(=O)[C@@H](NC(=O)CNC(=O)[C@H](CCC(N)=O)NC(=O)[C@H](CO)NC(=O)[C@@H](N)Cc1c[nH]cn1)[C@@H](C)O)[C@@H](C)O)C(C)C)C(=O)N[C@@H](CC(N)=O)C(=O)N[C@@H](CCCCNC(=O)CC[C@H](NC(=O)CC[C@H](NC(=O)COCCOCCNC(=O)COCCOCCNC(=O)CC[C@H](NC(=O)CCCCCCCCCCCCCCCCC(=O)O)C(=O)O)C(=O)O)C(=O)O)C(=O)O` [Example 53, N^ε29-([(4S)-5-hydroxy-4-[[(4S)-5-hydroxy-4-[[2-[2-[2-[[2-[2-[2-[[(4S)-5-hydroxy-4-[(18-hydroxy-18-oxooctadecanoyl)amino]-5-oxopentanoyl]amino]ethoxy]ethoxy]acetyl]amino]ethoxy]ethoxy]acetyl]amino]-5-oxopentanoyl]amino]-5-oxopentanyl]) [Leu^27,Lys^29] Glucagon], the EC50 rises from 0.055 nM to 0.095 nM (1.7-fold). The first is the more potent here.

With `CC(C)C[C@H](NC(=O)[C@H](Cc1ccc(O)cc1)NC(=O)[C@H](CCCCN)NC(=O)[C@H](CO)NC(=O)[C@H](Cc1ccc(O)cc1)NC(=O)[C@H](CC(=O)O)NC(=O)[C@H](CO)NC(=O)[C@@H](NC(=O)[C@H](Cc1ccccc1)NC(=O)[C@@H](NC(=O)CNC(=O)[C@H](CCC(N)=O)NC(=O)[C@H](CO)NC(=O)[C@@H](N)Cc1c[nH]cn1)[C@@H](C)O)[C@@H](C)O)C(=O)N[C@@H](CC(=O)O)C(=O)N[C@@H](CO)C(=O)N[C@@H](CCCCN)C(=O)N[C@@H](CCCCN)C(=O)N[C@@H](C)C(=O)N[C@@H](CCC(N)=O)C(=O)N[C@@H](CCC(=O)O)C(=O)N[C@@H](Cc1ccccc1)C(=O)N[C@H](C(=O)N[C@@H](CCCCNC(=O)COCCOCCNC(=O)COCCOCCNC(=O)CC[C@H](NC(=O)CCCCCCCCCCCCCCCCC(=O)O)C(=O)O)C(=O)N[C@@H](Cc1c[nH]c2ccccc12)C(=O)N[C@@H](CC(C)C)C(=O)N[C@@H](CC(C)C)C(=O)N[C@@H](CO)C(=O)N[C@H](C(=O)O)[C@@H](C)O)C(C)C` [Example 55, N^ε24-([2-[2-[2-[[2-[2-[2-[[(4S)-5-hydroxy-4-[(18-hydroxy-18-oxooctadecanoyl)amino]-5-oxopentanoyl]amino]ethoxy]ethoxy]acetyl]amino]ethoxy]ethoxy]acetyl]) [Lys^17,Lys^18,Glu^21,Lys^24,Leu^27, Ser^28] Glucagon] (H-HSQGTFTSDYSKYLDSKKAQEFVK([AEEA-AEEA-γGlu-C18 diacid])WLLST-OH; N-terminus and C-terminus assumed) the EC50 was 0.009 nM.
